Results published in the kinase profiling compilation of Christmann-Franck et al. (2016).
Where “and” joins values, the source holds several entries; their conditions need not be identical. Equal values may be shown once.

Legend:
Test in all cases: radiometric filter-binding kinase assay, Kinaseprofiler
[1] = target: ABL2 (human) (UniProt P42684); settings: ATP 45 µM
[2] = target: ACVR1B (human) (UniProt P36896); settings: ATP 10 µM
[3] = target: CAMK1D (human) (UniProt Q8IU85); settings: ATP 15 µM
[4] = target: CAMK4 (human) (UniProt Q16566); settings: ATP 10 µM
[5] = target: CDK1 CCNB1 (human) (UniProt P06493+P14635); settings: ATP 45 µM
[6] = target: CDK2 CCNE1 (human) (UniProt P24941+P24864); settings: ATP 120 µM
CDK2 CCNE1 (human), sequence (P24864 whole entry, looked up, other chains not shown): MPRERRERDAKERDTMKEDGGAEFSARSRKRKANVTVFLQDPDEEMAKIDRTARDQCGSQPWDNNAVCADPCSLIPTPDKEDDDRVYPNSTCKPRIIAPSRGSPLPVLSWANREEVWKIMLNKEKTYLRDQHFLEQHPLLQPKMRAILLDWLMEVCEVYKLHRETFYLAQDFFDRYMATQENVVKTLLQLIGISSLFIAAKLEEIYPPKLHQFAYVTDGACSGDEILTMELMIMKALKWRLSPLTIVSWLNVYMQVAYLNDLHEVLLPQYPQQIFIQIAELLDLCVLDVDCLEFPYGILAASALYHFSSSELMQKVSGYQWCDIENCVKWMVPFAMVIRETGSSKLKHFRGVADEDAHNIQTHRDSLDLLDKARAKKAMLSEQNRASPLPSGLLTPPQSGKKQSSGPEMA

[7] = tested on: CSNK1D (rat); settings: accession and sequence are those of the human protein
[8] = target: DYRK2 (human) (UniProt Q92630); settings: ATP 15 µM
DYRK2 (human), sequence (Q92630 whole entry, looked up): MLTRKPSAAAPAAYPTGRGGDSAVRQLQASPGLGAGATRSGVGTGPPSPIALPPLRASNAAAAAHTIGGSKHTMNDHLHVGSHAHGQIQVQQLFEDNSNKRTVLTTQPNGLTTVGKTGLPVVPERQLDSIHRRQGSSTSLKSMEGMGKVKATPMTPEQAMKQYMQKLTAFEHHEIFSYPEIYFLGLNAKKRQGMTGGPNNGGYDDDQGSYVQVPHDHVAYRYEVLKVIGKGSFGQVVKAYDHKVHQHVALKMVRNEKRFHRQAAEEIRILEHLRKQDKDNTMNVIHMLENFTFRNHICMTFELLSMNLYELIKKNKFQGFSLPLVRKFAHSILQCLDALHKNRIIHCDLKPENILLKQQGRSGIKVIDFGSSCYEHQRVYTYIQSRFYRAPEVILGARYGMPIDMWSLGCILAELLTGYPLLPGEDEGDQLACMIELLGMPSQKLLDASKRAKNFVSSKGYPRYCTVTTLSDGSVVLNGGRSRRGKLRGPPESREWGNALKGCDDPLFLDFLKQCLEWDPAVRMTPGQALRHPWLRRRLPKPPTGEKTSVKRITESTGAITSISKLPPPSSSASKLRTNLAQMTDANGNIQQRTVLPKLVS

[9] = target: EPHA1 (human) (UniProt P21709); settings: ATP 45 µM
[10] = target: EPHA2 (human) (UniProt P29317); settings: ATP 155 µM
[11] = target: EPHA5 (human) (UniProt P54756); settings: ATP 10 µM
[12] = target: EPHA8 (human) (UniProt P29322); settings: ATP 200 µM
[13] = target: EPHB1 (human) (UniProt P54762); settings: ATP 200 µM
[14] = target: FES (human) (UniProt P07332); settings: ATP 45 µM
FES (human), sequence (P07332 whole entry, looked up): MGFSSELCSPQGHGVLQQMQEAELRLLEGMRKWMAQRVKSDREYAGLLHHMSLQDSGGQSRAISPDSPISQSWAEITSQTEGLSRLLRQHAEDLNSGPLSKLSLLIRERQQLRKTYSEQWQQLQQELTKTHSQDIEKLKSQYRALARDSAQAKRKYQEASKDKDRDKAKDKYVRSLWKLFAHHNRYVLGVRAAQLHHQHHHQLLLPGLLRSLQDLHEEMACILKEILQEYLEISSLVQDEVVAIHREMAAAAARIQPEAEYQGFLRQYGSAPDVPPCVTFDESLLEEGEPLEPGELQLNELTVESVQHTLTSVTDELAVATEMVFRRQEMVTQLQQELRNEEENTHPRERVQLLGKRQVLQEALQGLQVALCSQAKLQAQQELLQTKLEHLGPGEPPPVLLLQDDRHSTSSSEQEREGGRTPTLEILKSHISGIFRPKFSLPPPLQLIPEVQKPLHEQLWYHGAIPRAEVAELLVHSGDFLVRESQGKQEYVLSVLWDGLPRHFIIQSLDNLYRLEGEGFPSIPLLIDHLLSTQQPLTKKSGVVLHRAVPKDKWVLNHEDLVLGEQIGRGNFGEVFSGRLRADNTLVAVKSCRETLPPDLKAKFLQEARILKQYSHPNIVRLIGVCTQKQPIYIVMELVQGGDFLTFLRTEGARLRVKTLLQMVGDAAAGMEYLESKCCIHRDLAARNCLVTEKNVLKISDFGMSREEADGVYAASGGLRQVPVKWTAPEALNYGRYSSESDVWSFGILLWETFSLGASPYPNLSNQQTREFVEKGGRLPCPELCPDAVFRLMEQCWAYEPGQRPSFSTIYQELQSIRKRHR

[15] = target: FRK (human) (UniProt P42685); settings: ATP 155 µM
[16] = target: FYN (human) (UniProt P06241); settings: ATP 70 µM
[17] = target: MAPK10 (human) (UniProt P53779); settings: ATP 10 µM
[18] = target: MAPK13 (human) (UniProt O15264); settings: ATP 15 µM
[19] = target: MAPK3 (human) (UniProt P27361); settings: ATP 70 µM
MAPK3 (human), sequence (P27361 whole entry, looked up): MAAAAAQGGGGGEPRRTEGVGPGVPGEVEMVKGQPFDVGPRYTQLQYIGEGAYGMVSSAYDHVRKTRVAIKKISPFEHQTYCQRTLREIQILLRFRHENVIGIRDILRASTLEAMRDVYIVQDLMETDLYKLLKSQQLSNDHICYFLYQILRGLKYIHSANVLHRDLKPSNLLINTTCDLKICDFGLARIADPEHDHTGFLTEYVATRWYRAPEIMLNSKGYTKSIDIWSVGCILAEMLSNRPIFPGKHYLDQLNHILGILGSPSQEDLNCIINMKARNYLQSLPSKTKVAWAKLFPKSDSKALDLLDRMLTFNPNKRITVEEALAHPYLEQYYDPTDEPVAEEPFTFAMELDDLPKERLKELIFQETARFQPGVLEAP

[20] = target: MTOR FKBP1A (human) (UniProt P42345+P62942); settings: ATP 45 µM
[21] = target: NEK6 (human) (UniProt Q9HC98); settings: ATP 45 µM
NEK6 (human), sequence (Q9HC98 whole entry, looked up): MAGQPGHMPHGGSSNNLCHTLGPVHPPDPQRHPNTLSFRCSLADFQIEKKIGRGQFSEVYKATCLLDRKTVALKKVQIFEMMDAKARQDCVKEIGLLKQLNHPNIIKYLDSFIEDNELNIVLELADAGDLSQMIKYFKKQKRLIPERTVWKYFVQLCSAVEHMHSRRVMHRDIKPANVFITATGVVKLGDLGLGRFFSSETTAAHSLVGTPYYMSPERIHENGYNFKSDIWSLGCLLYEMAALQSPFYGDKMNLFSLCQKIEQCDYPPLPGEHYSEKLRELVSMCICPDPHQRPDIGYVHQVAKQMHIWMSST

[22] = target: PAK3 (human) (UniProt O75914); settings: ATP 120 µM
[23] = target: PKN2 (human) (UniProt Q16513); settings: ATP 15 µM
[24] = target: PRKAA1 PRKAB1 PRKAG1 (human) (UniProt P54619+Q13131+Q9Y478); settings: ATP 45 µM
[25] = target: PRKG1 (human) (UniProt Q13976); settings: ATP 90 µM
PRKG1 (human), sequence (Q13976 whole entry, looked up): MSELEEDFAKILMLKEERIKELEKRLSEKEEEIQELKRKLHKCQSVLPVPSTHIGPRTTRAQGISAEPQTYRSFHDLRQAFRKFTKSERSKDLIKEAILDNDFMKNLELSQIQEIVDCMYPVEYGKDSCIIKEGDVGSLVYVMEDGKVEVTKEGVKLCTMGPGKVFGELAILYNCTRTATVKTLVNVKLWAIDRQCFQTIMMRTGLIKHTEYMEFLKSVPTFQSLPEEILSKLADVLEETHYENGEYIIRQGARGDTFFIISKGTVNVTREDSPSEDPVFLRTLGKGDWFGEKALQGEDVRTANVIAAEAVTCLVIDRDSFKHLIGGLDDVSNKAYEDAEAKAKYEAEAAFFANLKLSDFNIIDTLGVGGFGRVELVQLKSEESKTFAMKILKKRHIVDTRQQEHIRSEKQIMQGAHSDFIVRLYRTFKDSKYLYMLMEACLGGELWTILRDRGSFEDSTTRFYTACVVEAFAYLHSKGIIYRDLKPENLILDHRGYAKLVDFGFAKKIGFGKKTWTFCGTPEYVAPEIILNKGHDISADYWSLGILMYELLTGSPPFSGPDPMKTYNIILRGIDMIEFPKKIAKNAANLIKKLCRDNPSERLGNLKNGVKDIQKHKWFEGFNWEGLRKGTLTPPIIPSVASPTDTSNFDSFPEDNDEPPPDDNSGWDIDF

[26] = target: SGK3 (human) (UniProt Q96BR1); settings: ATP 155 µM
[27] = target: TAOK2 (human) (UniProt Q9UL54); settings: ATP 15 µM
TAOK2 (human), sequence (Q9UL54 whole entry, looked up): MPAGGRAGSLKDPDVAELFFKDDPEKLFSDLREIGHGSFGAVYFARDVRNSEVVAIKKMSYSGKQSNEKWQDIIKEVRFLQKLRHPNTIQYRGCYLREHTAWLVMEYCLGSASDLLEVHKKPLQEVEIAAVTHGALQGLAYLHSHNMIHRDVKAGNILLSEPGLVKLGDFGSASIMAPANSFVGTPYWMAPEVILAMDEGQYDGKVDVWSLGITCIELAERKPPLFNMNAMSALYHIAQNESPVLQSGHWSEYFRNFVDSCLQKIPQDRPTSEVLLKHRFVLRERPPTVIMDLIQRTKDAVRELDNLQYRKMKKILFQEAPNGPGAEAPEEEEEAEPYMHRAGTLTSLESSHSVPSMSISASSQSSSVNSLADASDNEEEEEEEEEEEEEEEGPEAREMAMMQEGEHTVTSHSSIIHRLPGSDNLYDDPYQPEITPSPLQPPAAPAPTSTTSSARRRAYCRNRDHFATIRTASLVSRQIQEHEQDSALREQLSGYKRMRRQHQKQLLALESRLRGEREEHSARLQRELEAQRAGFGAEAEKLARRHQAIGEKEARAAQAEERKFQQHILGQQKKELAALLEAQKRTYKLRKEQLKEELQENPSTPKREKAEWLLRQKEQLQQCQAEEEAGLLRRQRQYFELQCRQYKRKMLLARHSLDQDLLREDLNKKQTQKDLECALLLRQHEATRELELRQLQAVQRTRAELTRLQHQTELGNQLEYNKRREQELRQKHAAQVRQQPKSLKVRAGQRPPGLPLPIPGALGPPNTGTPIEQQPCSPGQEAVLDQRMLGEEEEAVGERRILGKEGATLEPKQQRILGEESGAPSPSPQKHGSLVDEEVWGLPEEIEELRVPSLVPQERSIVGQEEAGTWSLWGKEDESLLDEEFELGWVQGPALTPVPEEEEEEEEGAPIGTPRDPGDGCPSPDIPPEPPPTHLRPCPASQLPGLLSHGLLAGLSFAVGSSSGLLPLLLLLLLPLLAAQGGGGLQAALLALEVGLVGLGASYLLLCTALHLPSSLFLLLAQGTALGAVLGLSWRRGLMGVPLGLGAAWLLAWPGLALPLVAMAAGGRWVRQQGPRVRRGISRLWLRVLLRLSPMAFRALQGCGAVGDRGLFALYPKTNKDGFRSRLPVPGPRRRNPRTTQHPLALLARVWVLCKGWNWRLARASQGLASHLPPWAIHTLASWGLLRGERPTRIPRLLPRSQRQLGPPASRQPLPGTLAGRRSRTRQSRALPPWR

[28] = target: TXK (human) (UniProt P42681); settings: ATP 200 µM
[29] = target: TYRO3 (human) (UniProt Q06418); settings: ATP 45 µM
[30] = target: ULK2 (human) (UniProt Q8IYT8); settings: ATP 15 µM
[31] = target: ULK3 (human) (UniProt Q6PHR2); settings: ATP 10 µM
[32] = target: YES1 (human) (UniProt P07947); settings: ATP 45 µM

ACVR1B (human), sequence (P36896 whole entry, looked up): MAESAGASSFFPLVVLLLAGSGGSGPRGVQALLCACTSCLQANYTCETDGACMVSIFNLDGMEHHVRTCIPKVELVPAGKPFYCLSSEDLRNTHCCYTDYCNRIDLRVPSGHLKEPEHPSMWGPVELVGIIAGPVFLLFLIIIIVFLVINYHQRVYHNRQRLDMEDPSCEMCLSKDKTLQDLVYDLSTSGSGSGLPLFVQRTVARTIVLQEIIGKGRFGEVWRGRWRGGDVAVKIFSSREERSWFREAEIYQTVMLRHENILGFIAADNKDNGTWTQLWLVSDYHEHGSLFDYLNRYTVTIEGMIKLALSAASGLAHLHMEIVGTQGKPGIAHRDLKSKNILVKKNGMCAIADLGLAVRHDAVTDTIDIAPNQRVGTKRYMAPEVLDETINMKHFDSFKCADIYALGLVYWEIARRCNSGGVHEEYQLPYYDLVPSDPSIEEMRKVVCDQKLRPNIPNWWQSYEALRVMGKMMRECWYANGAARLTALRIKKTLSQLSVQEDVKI

residual activity ([1]; compound 1.0 µM): 30%
residual activity ([1]; compound 10.0 µM): 28%
residual activity ([2]; compound 1.0 µM): 104%
residual activity ([2]; compound 10.0 µM): 72%
residual activity ([3]; compound 1.0 µM): 71%
residual activity ([3]; compound 10.0 µM): 56%
residual activity ([4]; compound 1.0 µM): 66%
residual activity ([4]; compound 10.0 µM): 10%
residual activity ([5]; compound 1.0 µM): 35%
residual activity ([5]; compound 10.0 µM): 19%
residual activity ([6]; compound 1.0 µM): 6%
residual activity ([6]; compound 10.0 µM): -1%
residual activity ([7]; compound 1.0 µM): 14%
residual activity ([7]; compound 10.0 µM): 4%
residual activity ([8]; compound 1.0 µM): 79%
residual activity ([8]; compound 10.0 µM): 20%
residual activity ([9]; compound 1.0 µM): 55%
residual activity ([9]; compound 10.0 µM): 61%
residual activity ([10]; compound 1.0 µM): 61%
residual activity ([10]; compound 10.0 µM): 16%
residual activity ([11]; compound 1.0 µM): 59%
residual activity ([11]; compound 10.0 µM): 9%
residual activity ([12]; compound 1.0 µM): 84%
residual activity ([12]; compound 10.0 µM): 43%
residual activity ([13]; compound 1.0 µM): 59%
residual activity ([13]; compound 10.0 µM): 13%
residual activity ([14]; compound 1.0 µM): 72%
residual activity ([14]; compound 10.0 µM): 30%
residual activity ([15]; compound 1.0 µM): 13%
residual activity ([15]; compound 10.0 µM): 6%
residual activity ([16]; compound 1.0 µM): 5%
residual activity ([16]; compound 10.0 µM): 0%
residual activity ([17]; compound 1.0 µM): 7%
residual activity ([17]; compound 10.0 µM): -2%
residual activity ([18]; compound 1.0 µM): 90%
residual activity ([18]; compound 10.0 µM): 82%
residual activity ([19]; compound 1.0 µM): 114%
residual activity ([19]; compound 10.0 µM): 101%
residual activity ([20]; compound 1.0 µM): 117%
residual activity ([20]; compound 10.0 µM): 89%
residual activity ([21]; compound 1.0 µM): 91%
residual activity ([21]; compound 10.0 µM): 103%
residual activity ([22]; compound 1.0 µM): 88%
residual activity ([22]; compound 10.0 µM): 57%
residual activity ([23]; compound 1.0 µM): 91%
residual activity ([23]; compound 10.0 µM): 48%
residual activity ([24]; compound 1.0 µM): 2%
residual activity ([24]; compound 10.0 µM): 0%
residual activity ([25]; compound 1.0 µM): 79% and 77%
residual activity ([25]; compound 10.0 µM): 45% and 67%
residual activity ([26]; compound 1.0 µM): 89%
residual activity ([26]; compound 10.0 µM): 56%
residual activity ([27]; compound 1.0 µM): 75%
residual activity ([27]; compound 10.0 µM): 26%
residual activity ([28]; compound 1.0 µM): 45%
residual activity ([28]; compound 10.0 µM): 11%
residual activity ([29]; compound 1.0 µM): 62%
residual activity ([29]; compound 10.0 µM): 15%
residual activity ([30]; compound 1.0 µM): 93%
residual activity ([30]; compound 10.0 µM): 59%
residual activity ([31]; compound 1.0 µM): 55%
residual activity ([31]; compound 10.0 µM): 12%
residual activity ([32]; compound 1.0 µM): 17%
residual activity ([32]; compound 10.0 µM): 0%
SMILES: O=C1Nc2ccccc2/C1=C1\Nc2ccccc2\C1=N/O
